Molecules are shown by their SMILES. Like-named read-outs stand apart in the source and are kept apart here.

What all share (format): in vivo
Experiment [1] concerns pigweed (Amaranthus retroflexus). Briefly: Test A preemergence. The following applies: Amaranthus retroflexus, pre-emergence, 240 h; for pest or weed control at 125 g/ha: 125 g ai/ha, 0 to 100 scale where 0 is no effect and 100 is complete control; for pest or weed control at 500 g/ha: 500 g ai/ha.
The test system of another experiment is corn (Zea mays). Briefly: Test A postemergence. The following applies: Zea mays, post-emergence, 240 h, 125 g ai/ha. Summed up: (§1)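 Seeded soil received test chemicals as a preemergence directed spray, and seedlings at one to two leaves, 2–10 cm tall, received them postemergence, in a non-phytotoxic, surfactant-containing solvent mixture. Pots were held in a greenhouse for approximately 10 d, then rated for injury from 0, no effect, to 100, complete control.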

The subject of experiment [2] is barnyardgrass (Echinochloa crus-galli). Briefly: Test A postemergence. Conditions: Echinochloa crus-galli, post-emergence, 240 h, 125 g ai/ha. Summed up: as §1
For experiment [3], the system named is pigweed (Amaranthus retroflexus). The experiment in a line: Test A postemergence. Conditions: Amaranthus retroflexus, post-emergence, 240 h, 125 g ai/ha. In short, it runs like this:
as §1

The subject of experiment [4] is ryegrass, Italian (Italian ryegrass, Lolium multiflorum). The experiment in a line: Test A postemergence. Conditions: Lolium multiflorum, post-emergence, 240 h, 125 g ai/ha. In short, it runs like this: as §1
The test system of experiment [5] is giant foxtail (Setaria faberii). Briefly: Test A postemergence. The following applies: Setaria faberi, post-emergence, 240 h, 125 g ai/ha. Summed up:
as §1

Experiment [6] deals with ragweed (common ragweed, Ambrosia elatior). The experiment in a line: Test A postemergence. The following applies: Ambrosia artemisiifolia, post-emergence, 240 h, 125 g ai/ha. Summed up: as §1
The test system of a further experiment is Kochia (Kochia scoparia). The experiment in a line: Test A postemergence. The following applies: Bassia scoparia, post-emergence, 240 h, 125 g ai/ha. In short, it runs like this:
as §1

For experiment [7], the system named is Galium (catchweed bedstraw, Galium aparine). Briefly: Test A postemergence. Conditions: Galium, post-emergence, 240 h, 125 g ai/ha. In short, it runs like this:
as §1

Experiment [8] relates to wheat (Triticum aestivum). The experiment in a line: Test A postemergence. Conditions: Triticum aestivum, post-emergence, 240 h, 125 g ai/ha. In short, it runs like this: as §1
Experiment [9] concerns blackgrass (Alopecurus myosuroides). The experiment in a line: Test A postemergence. The following applies: Alopecurus myosuroides, post-emergence, 240 h, 125 g ai/ha. In short, it runs like this: as §1
The test system of a further experiment is rice (Oryra sativa). Briefly: Test B flooded paddy test. The following applies: Oryza sativa, Flood, 250 g ai/ha; scale of 0 to 100 where 0 is no effect and 100 is complete control; read-out: Rice plant response rating. Summed up: (§2)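 Evaluation by eye, against controls, occurred 13–15 d post-treatment in a greenhouse, using a 0 (no effect) to 100 (complete control) scale. Application was into the paddy water, 3 cm deep over the soil, on 2-leaf plants.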

For experiment [10], the system named is barnyardgrass (Echinochloa crus-galli). Briefly: Test B flooded paddy test. Conditions: Echinochloa crus-galli, Flood, 250 g ai/ha; scale of 0 to 100 where 0 is no effect and 100 is complete control; read-out: Barnyardgrass plant response rating. Summed up:
as §2

Experiment [11] deals with sedge, umbrella (small-flower umbrella sedge, Cyperus difformis). The experiment in a line: Test B flooded paddy test. The following applies: Cyperus difformis, Flood, 250 g ai/ha; scale of 0 to 100 where 0 is no effect and 100 is complete control; read-out: Sedge, Umbrella plant response rating. In short, it runs like this: as §2
Experiment [12] has as its system ducksalad (Heteranthera limosa). Briefly: Test B flooded paddy test. The following applies: Heteranthera limosa, Flood, 250 g ai/ha; scale of 0 to 100 where 0 is no effect and 100 is complete control; read-out: Ducksalad plant response rating. In short, it runs like this:
as §2

The mark [13] stands for this setting: preemergence, read-out: Pigweed plant response rating.

With `CN1C[C@H](c2ccc(C(F)(F)F)cc2)[C@@H](C(=O)Nc2cccc(F)c2Br)C1=O` [Compound 937], the pest or weed control at 125 g/ha in experiment [1] (setting [13]) was determined as 50%; in experiment [2] (Postemergence, visual injury after approximately 10 d, 0 to 100 scale where 0 is no effect and 100 is complete control, read-out: Plant response rating, Barnyardgrass) it was 70%; in [3] (Postemergence, visual injury after approximately 10 d, 0 to 100 scale where 0 is no effect and 100 is complete control, read-out: Plant response rating, Pigweed) it was 60%; in [4] (Postemergence, visual injury after approximately 10 d, 0 to 100 scale where 0 is no effect and 100 is complete control, read-out: Plant response rating, Ryegrass, Italian) it was 20%; in experiment [5] (Postemergence, visual injury after approximately 10 d, 0 to 100 scale where 0 is no effect and 100 is complete control, read-out: Plant response rating, Foxtail, Giant) it was 90%; in [6] (Postemergence, visual injury after approximately 10 d, 0 to 100 scale where 0 is no effect and 100 is complete control, read-out: Plant response rating, Ragweed), 20%. Moreover, the pest or weed control at 125 g/ha with Kochia (Kochia scoparia) (Postemergence, visual injury after approximately 10 d, 0 to 100 scale where 0 is no effect and 100 is complete control, read-out: Plant response rating, Kochia) stood at 30%; in [7] (Postemergence, visual injury after approximately 10 d, 0 to 100 scale where 0 is no effect and 100 is complete control, read-out: Plant response rating, Galium), 70%; in experiment [9] (Postemergence, visual injury after approximately 10 d, 0 to 100 scale where 0 is no effect and 100 is complete control, read-out: Plant response rating, Blackgrass) it was 30%. Besides, the pest or weed control at 500 g/ha in [1] (preemergence, visual injury rating about 10 d after treatment, 0 to 100 scale (0 no effect, 100 complete control), read-out: Pigweed plant response rating) is 80%. The Corn plant response rating (crop injury, 0 = no effect, 100 = complete kill) at 125 g/ha in the experiment on corn (Zea mays) (Postemergence, visual injury after approximately 10 d, 0 to 100 scale where 0 is no effect and 100 is complete control) turned out to be 20%. The plant injury at 125 g/ha in [8] (Postemergence, visual injury after approximately 10 d, 0 to 100 scale where 0 is no effect and 100 is complete control, read-out: Plant response rating, Wheat) was 20%. The pest or weed control at 250 g/ha with rice (Oryra sativa) was determined as 0%; in [10], 0%; in experiment [11], 0%; in [12] it was 45%.
For the molecule `COc1cc([C@H]2CN(C)C(=O)[C@@H]2C(=O)Nc2ccccc2SC)cc(C(F)(F)F)c1` [Compound 857], the pest or weed control at 125 g/ha in experiment [1] (setting [13]) came to 60%; in experiment [2] (postemergence, visual injury rating after approximately 10 d, read-out: Barnyardgrass plant response rating (0 to 100 scale, 0 no effect, 100 complete control)) it was 70%; in experiment [3] (postemergence, visual injury rating after approximately 10 d, read-out: Pigweed plant response rating (0 to 100 scale, 0 no effect, 100 complete control)), 30%; in experiment [4] (postemergence, visual injury rating after approximately 10 d, read-out: Ryegrass, Italian plant response rating (0 to 100 scale, 0 no effect, 100 complete control)), 20%; in experiment [5] (postemergence, visual injury rating after approximately 10 d, read-out: Foxtail, Giant plant response rating (0 to 100 scale, 0 no effect, 100 complete control)), 70%; in experiment [6] (postemergence, visual injury rating after approximately 10 d, read-out: Ragweed plant response rating (0 to 100 scale, 0 no effect, 100 complete control)), 0%. For the same molecule, the pest or weed control at 125 g/ha in the experiment with Kochia (Kochia scoparia) (postemergence, visual injury rating after approximately 10 d, read-out: Kochia plant response rating (0 to 100 scale, 0 no effect, 100 complete control)) amounted to 20%; in [7] (postemergence, visual injury rating after approximately 10 d, read-out: Galium plant response rating (0 to 100 scale, 0 no effect, 100 complete control)) it was 20%; in [9] (postemergence, visual injury rating after approximately 10 d, read-out: Blackgrass plant response rating (0 to 100 scale, 0 no effect, 100 complete control)) it was 30%. Further, the pest or weed control at 500 g/ha in experiment [1] (Preemergence, visual injury vs untreated controls after approximately 10 d, read-out: Pigweed plant response rating (0 to 100 scale where 0 is no effect and 100 is complete control)) was found to be 70%. The plant injury at 125 g/ha in the experiment with corn (Zea mays) (postemergence, visual injury rating after approximately 10 d, read-out: Corn plant response rating (0 to 100 scale, 0 no effect, 100 complete control)) amounted to 40%; in [8] (postemergence, visual injury rating after approximately 10 d, read-out: Wheat plant response rating (0 to 100 scale, 0 no effect, 100 complete control)), 30%. Moreover, the pest or weed control at 250 g/ha came out at 0% in the experiment on rice (Oryra sativa), 60% in experiment [10], 80% in experiment [11] and 80% in experiment [12].

The record behind these values is patent US12077503B2, “Substituted cyclic amides and their use as herbicides” (FMC CORPORATION, priority 2015, dated 2024).
